The source of these data is ChEMBL document CHEMBL1149881, “Syntheses of 4,6'-epoxymorphinan derivatives and their pharmacologies” (Bioorg Med Chem, 2008).

Test [1] concerns the target Mu-type opioid receptor (Mus musculus, UniProt P42866). Briefly: Displacement of [3H]DAMGO from mu opioid receptor in ICR mouse whole brain. (In general: Loss of bound radioactivity is the signal in a displacement assay; it reports binding, not function.)
Test [2] concerns the target Delta-type opioid receptor (Mus musculus, UniProt P32300). Briefly: Displacement of [3H]DPDPE from delta opioid receptor in ICR mouse whole brain.
For test [3], the target named is Mu-type opioid receptor (Mus musculus) (UniProt P42866). Briefly: Inhibition of mu opioid receptor-mediated DAMGO induced activation of G-Protein in ICR mouse brain at 0.1 to 1 uM by [35S]GTPgammaS binding. It is filed as functional. On the technique in general: GTPγS resists hydrolysis and so accumulates on activated G proteins.
Test [4] deals with Delta-type opioid receptor (Mus musculus) (UniProt P32300). Briefly: Inhibition of delta opioid receptor-mediated SNC80 induced activation of G-Protein in ICR mouse brain at 0.1 to 1 uM by [35S]GTPgammaS binding. It is filed as functional, tissue-based.
Test [5] concerns the target Kappa-type opioid receptor (Cavia porcellus) (UniProt P41144). Briefly: Inhibition of kappa opioid receptor-mediated U50488 induced activation of G-Protein in guinea pig cerebellum at 0.1 to 1 uM by [35S]GTPgammaS binding. Format: functional, tissue-based.
For test [6], the target named is Kappa-type opioid receptor (Cavia porcellus, UniProt P41144). The experiment in a line: Displacement of [3H]U69593 from kappa opioid receptor in guinea pig cerebellum.
Test [7] has as its target Mu-type opioid receptor (Mus musculus) (UniProt P42866). The experiment in a line: Activation of mu opioid receptor-mediated G-protein activation in ICR mouse whole brain at 10 uM by [35S]GTPgammaS binding in presence of Beta-FNA. It is filed as functional.
The subject of test [8] is Mus musculus. Briefly: Antinociceptive activity against sc dosed ICR mouse by hot plate method. It is filed as functional, organism-based.
Test [9] concerns Mus musculus. Briefly: Antinociceptive activity against sc dosed ICR mouse by tail flick method. Format: functional, organism-based. A general note: Thermal pain tests record how soon the animal reacts.

Active and inactive are the calls of the source. The calls are words filed in the database; no cut-off is given here. Some results are limits rather than exact numbers.

Chain of Mu-type opioid receptor (Mus musculus) (P42866 whole entry): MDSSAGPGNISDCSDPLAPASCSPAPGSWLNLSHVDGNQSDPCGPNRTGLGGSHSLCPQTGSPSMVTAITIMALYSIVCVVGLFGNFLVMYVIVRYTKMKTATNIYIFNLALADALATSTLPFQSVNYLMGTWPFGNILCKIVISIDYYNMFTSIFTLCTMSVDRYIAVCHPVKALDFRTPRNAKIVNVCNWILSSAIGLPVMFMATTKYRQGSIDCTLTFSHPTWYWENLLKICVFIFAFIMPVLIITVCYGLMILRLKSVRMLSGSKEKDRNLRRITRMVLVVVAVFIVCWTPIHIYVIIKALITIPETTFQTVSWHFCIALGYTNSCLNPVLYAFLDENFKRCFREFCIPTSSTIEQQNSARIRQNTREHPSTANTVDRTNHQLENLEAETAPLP
Chain of Delta-type opioid receptor (P32300 whole entry): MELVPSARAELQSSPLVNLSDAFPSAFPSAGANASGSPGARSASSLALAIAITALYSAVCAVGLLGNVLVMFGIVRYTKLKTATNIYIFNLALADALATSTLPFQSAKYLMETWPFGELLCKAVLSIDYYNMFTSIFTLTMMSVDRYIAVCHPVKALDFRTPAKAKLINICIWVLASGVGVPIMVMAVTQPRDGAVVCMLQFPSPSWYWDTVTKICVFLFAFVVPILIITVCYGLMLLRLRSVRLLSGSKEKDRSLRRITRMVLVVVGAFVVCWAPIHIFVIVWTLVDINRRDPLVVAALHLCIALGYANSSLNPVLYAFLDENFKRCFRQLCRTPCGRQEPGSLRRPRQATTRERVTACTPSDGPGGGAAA
Chain of Mu-type opioid receptor (P42866 whole entry): as the sequence (P42866 whole entry) above
Chain of Kappa-type opioid receptor (P41144 whole entry): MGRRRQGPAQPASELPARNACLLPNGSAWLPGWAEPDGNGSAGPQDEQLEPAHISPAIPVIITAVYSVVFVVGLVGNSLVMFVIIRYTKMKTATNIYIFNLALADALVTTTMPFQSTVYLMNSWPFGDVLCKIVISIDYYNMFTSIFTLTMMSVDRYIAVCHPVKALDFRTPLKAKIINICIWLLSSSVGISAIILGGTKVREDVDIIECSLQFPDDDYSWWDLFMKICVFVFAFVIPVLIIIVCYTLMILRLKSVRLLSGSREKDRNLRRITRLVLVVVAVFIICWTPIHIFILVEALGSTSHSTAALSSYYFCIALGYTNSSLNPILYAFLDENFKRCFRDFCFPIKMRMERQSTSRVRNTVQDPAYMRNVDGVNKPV
Chain of Delta-type opioid receptor (Mus musculus) (P32300 whole entry): as the sequence (P32300 whole entry) above
Chain of Kappa-type opioid receptor (Cavia porcellus) (P41144 whole entry): as the sequence (P41144 whole entry) above

In general, IC50 refers to the concentration that gives 50% inhibition. Take `Oc1ccc2c3c1OC[C@H]1CC[C@]4(O)[C@H](C2)N(CC2CC2)CC[C@@]34C1`: the figures for the IC50 in test [1], in test [2] and in test [6] were 0.00121 µM, 0.0573 µM and 0.00098 µM, respectively. The outcome in test [3], in [4] and in [5] was Active.

On to `COc1ccc2c3c1OC[C@H]1CC[C@]4(O)[C@H](C2)N(C)CC[C@@]34C1`, for which the IC50 in test [1] is 0.183 µM; in test [2], less than 0.5 µM; in test [6], less than 0.5 µM. Also, in [3], the result was Active. Also, the result in [7] was inactive. The Activity entry in [8] and in test [9] was “Dose-dependent effect” in each case.
